Test [1] has as its target GABA-A receptor; anion channel. Nature of the test: Inhibition of [3H]flunitrazepam [3H]FNZ) binding to GABA-A Benzodiazepine receptor of synaptosomal membranes from rat cerebellum. It counts as tissue-based.
The subject of test [2] is Mus musculus. Nature of the test: Anxiolytic activity in mice at 0.01 to 0.3 mg/kg intraperitoneal administration. It counts as functional, organism-based.
The target in test [3] is GABA-A receptor; anion channel. Nature of the test: Inhibition of [3H]flunitrazepam [3H]FNZ) binding to GABA-A Benzodiazepine receptor of synaptosomal membranes from rat hippocampus.
The target of test [4] is GABA-A receptor; anion channel. Nature of the test: Inhibition of [3H]flunitrazepam [3H]FNZ) binding to GABA-A Benzodiazepine receptor of synaptosomal membranes from rat striatum.
The target in test [5] is GABA-A receptor; anion channel (Rattus norvegicus) (UniProt O09028+P15431+P18506+P18508+P19969+P20236+P23574+P23576+P28471+P28473+P30191+P62813+P63079+P63138+Q91ZM7+Q9ES14). Nature of the test: Inhibition of [3H]flunitrazepam [3H]FNZ) binding to GABA-A benzodiazepine receptor of cortical membranes +/- 100 uM GABA (Partial agonist).
For test [6], the target named is GABA-A receptor; anion channel. Nature of the test: Inhibition of [3H]zolpidem binding to GABA-A Benzodiazepine receptor of synaptosomal membranes from rat cerebellum. It counts as tissue-based.
For test [7], the target named is GABA-A receptor; anion channel. Nature of the test: Inhibition of [3H]flunitrazepam [3H]FNZ) binding to GABA-A Benzodiazepine receptor of synaptosomal membranes from rat spinal cord. The test is classed as tissue-based.
In test [8] the target is GABA-A receptor; anion channel. In words: Inhibition of [3H]zolpidem binding to GABA-A Benzodiazepine receptor of synaptosomal membranes from rat cerebral cortex. It counts as tissue-based.
The target in test [9] is GABA-A receptor; anion channel. In words: Inhibition of [3H]flunitrazepam [3H]FNZ) binding to GABA-A Benzodiazepine receptor of synaptosomal membranes from rat cerebral cortex. The test is classed as tissue-based.
For test [10], the system named is Mus musculus. Nature of the test: Anxiolytic activity in mice at 100 ug/kg. The test is classed as functional.

Consider three compounds from ChEMBL document CHEMBL1151600, “6-Bromo-3-nitroflavone, a new high affinity benzodiazepine receptor agonist recognizes two populations of cerebral cortical binding sites” (Bioorg Med Chem Lett, 1997).

pKi: −log10 of the molar value. The source made the active and inactive calls. The calls are words filed in the database; no cut-off is given here.

The term pKi denotes −log10 of the Ki, conventionally taken in molar units. High values mean a low Ki, low ones a high Ki. On to `O=c1cc(-c2cccc([N+](=O)[O-])c2)oc2ccc(Br)cc12`, for which the pKi was 8.44 in test [1]; 8.02 in test [3]; 8.01 in test [4]; 8.52 in test [6]; 7.90 in [7]; 8.42 in [8]. The compound further gave a pKi in [9] of 8.92. Further, the Anxiolytic affect result with Mus musculus [2] is “Active”. Besides, in [5], the GABA shift came to 1.38.

Consider `O=c1cc(-c2ccc([N+](=O)[O-])cc2)oc2ccc(Br)cc12`, for which, in test [9], the pKi was 6.66.

On to `CN1C(=O)CN=C(c2ccccc2)c2cc(Cl)ccc21` [DIAZEPAM], for which, in the test on Mus musculus [10], the Anxiolytic activity came out at 35.
